Test results: ChEMBL document CHEMBL1131813, “9-Deoxopodophyllotoxin derivatives as anti-cancer agents” (1999)

tested on: NCI/ADR-RES; assay: In vitro cytotoxic activity against ADR resistant breast cancer (MCF-7-ADR) cell line.; assay type: functional; conditions: Homo sapiens

Structure (SMILES) | GI50 [µM]
COC(=O)CC1OC[C@H]2[C@H]1[C@H](c1cc(OC)c(O)c(OC)c1)c1cc3c(cc1[C@H]2O)OCO3 (stereo not given in full) | 60
COCCOC1OC[C@H]2[C@H]1[C@H](c1cc(OC)c(OC)c(OC)c1)c1cc3c(cc1[C@@H]2O)OCO3 (stereo not given in full) | > 100
COC(=O)CC1OC[C@H]2[C@H]1[C@H](c1cc(OC)c(OC)c(OC)c1)c1cc3c(cc1[C@@H]2O)OCO3 (stereo not given in full) | 70
COc1cc([C@@H]2c3cc4c(cc3[C@H](O)[C@H]3COC(CCO)[C@H]23)OCO4)cc(OC)c1OC (stereo not given in full) | > 100
COc1cc([C@@H]2c3cc4c(cc3[C@H](O)[C@H]3COC(OCCO)[C@H]23)OCO4)cc(OC)c1OC (stereo not given in full) | 70
COc1cc([C@@H]2c3cc4c(cc3[C@H](O)[C@H]3COC(OCCF)[C@H]23)OCO4)cc(OC)c1OC (stereo not given in full) | 50
COc1cc([C@@H]2c3cc4c(cc3[C@H](O)[C@H]3COC(=O)[C@H]23)OCO4)cc(OC)c1OC [PODOFILOX] | 0.6
COc1cc([C@@H]2c3cc4c(cc3[C@@H](O[C@@H]3O[C@@H]5CO[C@@H](C)O[C@H]5[C@H](O)[C@H]3O)[C@H]3COC(=O)[C@H]23)OCO4)cc(OC)c1O [ETOPOSIDE] | 25
COc1cc([C@@H]2c3cc4c(cc3[C@H](O)[C@H]3COC(CC(C)=O)[C@H]23)OCO4)cc(OC)c1OC (stereo not given in full) | 60
COc1cc([C@@H]2c3cc4c(cc3[C@@H](O)[C@H]3COC(CC(C)=O)[C@@H]23)OCO4)cc(OC)c1O (stereo not given in full) | 0.8

tested on: A498; assay: In vitro cytotoxic activity against renal (A 498) cancer cell line.; assay type: functional; conditions: Homo sapiens

Structure (SMILES) | GI50 [nM]
COC(=O)CC1OC[C@H]2[C@H]1[C@H](c1cc(OC)c(O)c(OC)c1)c1cc3c(cc1[C@H]2O)OCO3 (stereo not given in full) | > 100000
COCCOC1OC[C@H]2[C@H]1[C@H](c1cc(OC)c(OC)c(OC)c1)c1cc3c(cc1[C@@H]2O)OCO3 (stereo not given in full) | 50
COC(=O)CC1OC[C@H]2[C@H]1[C@H](c1cc(OC)c(OC)c(OC)c1)c1cc3c(cc1[C@@H]2O)OCO3 (stereo not given in full) | < 10
COc1cc([C@@H]2c3cc4c(cc3[C@H](O)[C@H]3COC(CCO)[C@H]23)OCO4)cc(OC)c1OC (stereo not given in full) | 50
COc1cc([C@@H]2c3cc4c(cc3[C@H](O)[C@H]3COC(OCCO)[C@H]23)OCO4)cc(OC)c1OC (stereo not given in full) | 10
COc1cc([C@@H]2c3cc4c(cc3[C@H](O)[C@H]3COC(OCCF)[C@H]23)OCO4)cc(OC)c1OC (stereo not given in full) | 80000
COc1cc([C@@H]2c3cc4c(cc3[C@H](O)[C@H]3COC(=O)[C@H]23)OCO4)cc(OC)c1OC [PODOFILOX] | 80
COc1cc([C@@H]2c3cc4c(cc3[C@@H](O[C@@H]3O[C@@H]5CO[C@@H](C)O[C@H]5[C@H](O)[C@H]3O)[C@H]3COC(=O)[C@H]23)OCO4)cc(OC)c1O [ETOPOSIDE] | 8000
COc1cc([C@@H]2c3cc4c(cc3[C@H](O)[C@H]3COC(CC(C)=O)[C@H]23)OCO4)cc(OC)c1OC (stereo not given in full) | 20
COc1cc([C@@H]2c3cc4c(cc3[C@@H](O)[C@H]3COC(CC(C)=O)[C@@H]23)OCO4)cc(OC)c1O (stereo not given in full) | 80

tested on: NCI-H522; assay: In vitro cytotoxic activity against lung (H 522) cancer cell line.; conditions: Homo sapiens

Structure (SMILES) | GI50 [µM]
COC(=O)CC1OC[C@H]2[C@H]1[C@H](c1cc(OC)c(O)c(OC)c1)c1cc3c(cc1[C@H]2O)OCO3 (stereo not given in full) | 9
COCCOC1OC[C@H]2[C@H]1[C@H](c1cc(OC)c(OC)c(OC)c1)c1cc3c(cc1[C@@H]2O)OCO3 (stereo not given in full) | 0.09
COC(=O)CC1OC[C@H]2[C@H]1[C@H](c1cc(OC)c(OC)c(OC)c1)c1cc3c(cc1[C@@H]2O)OCO3 (stereo not given in full) | 8
COc1cc([C@@H]2c3cc4c(cc3[C@H](O)[C@H]3COC(CCO)[C@H]23)OCO4)cc(OC)c1OC (stereo not given in full) | 0.05
COc1cc([C@@H]2c3cc4c(cc3[C@H](O)[C@H]3COC(OCCO)[C@H]23)OCO4)cc(OC)c1OC (stereo not given in full) | 10
COc1cc([C@@H]2c3cc4c(cc3[C@H](O)[C@H]3COC(OCCF)[C@H]23)OCO4)cc(OC)c1OC (stereo not given in full) | 80
COc1cc([C@@H]2c3cc4c(cc3[C@H](O)[C@H]3COC(=O)[C@H]23)OCO4)cc(OC)c1OC [PODOFILOX] | 0.7
COc1cc([C@@H]2c3cc4c(cc3[C@@H](O[C@@H]3O[C@@H]5CO[C@@H](C)O[C@H]5[C@H](O)[C@H]3O)[C@H]3COC(=O)[C@H]23)OCO4)cc(OC)c1O [ETOPOSIDE] | 0.9
COc1cc([C@@H]2c3cc4c(cc3[C@H](O)[C@H]3COC(CC(C)=O)[C@H]23)OCO4)cc(OC)c1OC (stereo not given in full) | 20
COc1cc([C@@H]2c3cc4c(cc3[C@@H](O)[C@H]3COC(CC(C)=O)[C@@H]23)OCO4)cc(OC)c1O (stereo not given in full) | 0.8

tested on: M14; assay: In vitro cytotoxic activity against melanoma (M 14) cancer cell line.; assay type: functional; conditions: Homo sapiens

Structure (SMILES) | GI50 [µM]
COC(=O)CC1OC[C@H]2[C@H]1[C@H](c1cc(OC)c(O)c(OC)c1)c1cc3c(cc1[C@H]2O)OCO3 (stereo not given in full) | > 100
COCCOC1OC[C@H]2[C@H]1[C@H](c1cc(OC)c(OC)c(OC)c1)c1cc3c(cc1[C@@H]2O)OCO3 (stereo not given in full) | > 100
COC(=O)CC1OC[C@H]2[C@H]1[C@H](c1cc(OC)c(OC)c(OC)c1)c1cc3c(cc1[C@@H]2O)OCO3 (stereo not given in full) | > 100
COc1cc([C@@H]2c3cc4c(cc3[C@H](O)[C@H]3COC(CCO)[C@H]23)OCO4)cc(OC)c1OC (stereo not given in full) | > 100
COc1cc([C@@H]2c3cc4c(cc3[C@H](O)[C@H]3COC(OCCO)[C@H]23)OCO4)cc(OC)c1OC (stereo not given in full) | 60
COc1cc([C@@H]2c3cc4c(cc3[C@H](O)[C@H]3COC(OCCF)[C@H]23)OCO4)cc(OC)c1OC (stereo not given in full) | 60
COc1cc([C@@H]2c3cc4c(cc3[C@H](O)[C@H]3COC(=O)[C@H]23)OCO4)cc(OC)c1OC [PODOFILOX] | 0.07
COc1cc([C@@H]2c3cc4c(cc3[C@@H](O[C@@H]3O[C@@H]5CO[C@@H](C)O[C@H]5[C@H](O)[C@H]3O)[C@H]3COC(=O)[C@H]23)OCO4)cc(OC)c1O [ETOPOSIDE] | < 0.01
COc1cc([C@@H]2c3cc4c(cc3[C@H](O)[C@H]3COC(CC(C)=O)[C@H]23)OCO4)cc(OC)c1OC (stereo not given in full) | 20
COc1cc([C@@H]2c3cc4c(cc3[C@@H](O)[C@H]3COC(CC(C)=O)[C@@H]23)OCO4)cc(OC)c1O (stereo not given in full) | 0.8

tested on: DU-145; assay: In vitro cytotoxic activity against prostate (DU-145) cancer cell line.; assay type: functional; conditions: Homo sapiens

Structure (SMILES) | GI50 [µM]
COC(=O)CC1OC[C@H]2[C@H]1[C@H](c1cc(OC)c(O)c(OC)c1)c1cc3c(cc1[C@H]2O)OCO3 (stereo not given in full) | > 100
COCCOC1OC[C@H]2[C@H]1[C@H](c1cc(OC)c(OC)c(OC)c1)c1cc3c(cc1[C@@H]2O)OCO3 (stereo not given in full) | 7
COC(=O)CC1OC[C@H]2[C@H]1[C@H](c1cc(OC)c(OC)c(OC)c1)c1cc3c(cc1[C@@H]2O)OCO3 (stereo not given in full) | 60
COc1cc([C@@H]2c3cc4c(cc3[C@H](O)[C@H]3COC(CCO)[C@H]23)OCO4)cc(OC)c1OC (stereo not given in full) | 0.5
COc1cc([C@@H]2c3cc4c(cc3[C@H](O)[C@H]3COC(OCCO)[C@H]23)OCO4)cc(OC)c1OC (stereo not given in full) | 20
COc1cc([C@@H]2c3cc4c(cc3[C@H](O)[C@H]3COC(OCCF)[C@H]23)OCO4)cc(OC)c1OC (stereo not given in full) | 80
COc1cc([C@@H]2c3cc4c(cc3[C@H](O)[C@H]3COC(=O)[C@H]23)OCO4)cc(OC)c1OC [PODOFILOX] | 0.04
COc1cc([C@@H]2c3cc4c(cc3[C@@H](O[C@@H]3O[C@@H]5CO[C@@H](C)O[C@H]5[C@H](O)[C@H]3O)[C@H]3COC(=O)[C@H]23)OCO4)cc(OC)c1O [ETOPOSIDE] | 2
COc1cc([C@@H]2c3cc4c(cc3[C@H](O)[C@H]3COC(CC(C)=O)[C@H]23)OCO4)cc(OC)c1OC (stereo not given in full) | 20
COc1cc([C@@H]2c3cc4c(cc3[C@@H](O)[C@H]3COC(CC(C)=O)[C@@H]23)OCO4)cc(OC)c1O (stereo not given in full) | 0.1

tested on: SK-OV-3; assay: In vitro cytotoxic activity against Ovarian (SK-OV3) cell line.; assay type: functional; conditions: Homo sapiens

Structure (SMILES) | GI50 [nM]
COC(=O)CC1OC[C@H]2[C@H]1[C@H](c1cc(OC)c(O)c(OC)c1)c1cc3c(cc1[C@H]2O)OCO3 (stereo not given in full) | 500
COCCOC1OC[C@H]2[C@H]1[C@H](c1cc(OC)c(OC)c(OC)c1)c1cc3c(cc1[C@@H]2O)OCO3 (stereo not given in full) | 20000
COC(=O)CC1OC[C@H]2[C@H]1[C@H](c1cc(OC)c(OC)c(OC)c1)c1cc3c(cc1[C@@H]2O)OCO3 (stereo not given in full) | 4000
COc1cc([C@@H]2c3cc4c(cc3[C@H](O)[C@H]3COC(CCO)[C@H]23)OCO4)cc(OC)c1OC (stereo not given in full) | 800
COc1cc([C@@H]2c3cc4c(cc3[C@H](O)[C@H]3COC(OCCO)[C@H]23)OCO4)cc(OC)c1OC (stereo not given in full) | 90
COc1cc([C@@H]2c3cc4c(cc3[C@H](O)[C@H]3COC(OCCF)[C@H]23)OCO4)cc(OC)c1OC (stereo not given in full) | > 100000
COc1cc([C@@H]2c3cc4c(cc3[C@H](O)[C@H]3COC(=O)[C@H]23)OCO4)cc(OC)c1OC [PODOFILOX] | 900
COc1cc([C@@H]2c3cc4c(cc3[C@@H](O[C@@H]3O[C@@H]5CO[C@@H](C)O[C@H]5[C@H](O)[C@H]3O)[C@H]3COC(=O)[C@H]23)OCO4)cc(OC)c1O [ETOPOSIDE] | < 10
COc1cc([C@@H]2c3cc4c(cc3[C@H](O)[C@H]3COC(CC(C)=O)[C@H]23)OCO4)cc(OC)c1OC (stereo not given in full) | 6000
COc1cc([C@@H]2c3cc4c(cc3[C@@H](O)[C@H]3COC(CC(C)=O)[C@@H]23)OCO4)cc(OC)c1O (stereo not given in full) | 300

tested on: SW-620; assay: In vitro cytotoxic activity against colon (SW 620) cancer cell line.; assay type: functional; conditions: Homo sapiens

Structure (SMILES) | GI50 [µM]
COC(=O)CC1OC[C@H]2[C@H]1[C@H](c1cc(OC)c(O)c(OC)c1)c1cc3c(cc1[C@H]2O)OCO3 (stereo not given in full) | 20
COCCOC1OC[C@H]2[C@H]1[C@H](c1cc(OC)c(OC)c(OC)c1)c1cc3c(cc1[C@@H]2O)OCO3 (stereo not given in full) | 80
COC(=O)CC1OC[C@H]2[C@H]1[C@H](c1cc(OC)c(OC)c(OC)c1)c1cc3c(cc1[C@@H]2O)OCO3 (stereo not given in full) | 70
COc1cc([C@@H]2c3cc4c(cc3[C@H](O)[C@H]3COC(CCO)[C@H]23)OCO4)cc(OC)c1OC (stereo not given in full) | > 100
COc1cc([C@@H]2c3cc4c(cc3[C@H](O)[C@H]3COC(OCCO)[C@H]23)OCO4)cc(OC)c1OC (stereo not given in full) | 70
COc1cc([C@@H]2c3cc4c(cc3[C@H](O)[C@H]3COC(OCCF)[C@H]23)OCO4)cc(OC)c1OC (stereo not given in full) | 70
COc1cc([C@@H]2c3cc4c(cc3[C@H](O)[C@H]3COC(=O)[C@H]23)OCO4)cc(OC)c1OC [PODOFILOX] | 2
COc1cc([C@@H]2c3cc4c(cc3[C@@H](O[C@@H]3O[C@@H]5CO[C@@H](C)O[C@H]5[C@H](O)[C@H]3O)[C@H]3COC(=O)[C@H]23)OCO4)cc(OC)c1O [ETOPOSIDE] | 90
COc1cc([C@@H]2c3cc4c(cc3[C@H](O)[C@H]3COC(CC(C)=O)[C@H]23)OCO4)cc(OC)c1OC (stereo not given in full) | 60
COc1cc([C@@H]2c3cc4c(cc3[C@@H](O)[C@H]3COC(CC(C)=O)[C@@H]23)OCO4)cc(OC)c1O (stereo not given in full) | 0.1
